In ChEMBL document CHEMBL1201862, “PubChem BioAssay data set” (2004):
The source made the active and inactive calls.

What was measured:
Protein Tat = molecular target: T1, Protein Tat (Human immunodeficiency virus type 1 group M subtype B (isolate HXB2)(HIV-1), UniProt P04608); assay type: functional;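 further: tat binding to TAR RNA read out by fluorescence polarization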
T1 sequence (P04608 whole entry): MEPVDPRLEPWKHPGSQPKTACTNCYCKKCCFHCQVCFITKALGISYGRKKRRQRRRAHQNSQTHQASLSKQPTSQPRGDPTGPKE

[1] = THP-1 cell cytotoxicity, dose response, cytotoxicity control for Vif-APOBEC3G degradation inhibitor project, THP-1 cells (AID 1117359); assay type: functional; conditions: Human immunodeficiency virus 1, THP-1
[2] = molecular target: Eukaryotic translation initiation factor 4E (Mus musculus, UniProt P63073); test: eIF4E–eIF4G protein interaction inhibitors, dose response, biochemical, TR-FRET (AID 855); assay type: functional;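 further: potency for disrupting eIF4E binding to eIF4GI seen as loss of FRET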
Chain of Eukaryotic translation initiation factor 4E (P63073 whole entry): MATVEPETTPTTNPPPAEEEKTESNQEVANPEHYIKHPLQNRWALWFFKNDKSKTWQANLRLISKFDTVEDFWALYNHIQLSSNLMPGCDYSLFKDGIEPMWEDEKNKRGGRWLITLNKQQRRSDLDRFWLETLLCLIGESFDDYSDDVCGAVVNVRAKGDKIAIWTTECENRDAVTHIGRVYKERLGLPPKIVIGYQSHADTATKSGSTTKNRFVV

[3] = Shn3 3'UTR reporter inhibitors, dose response, cell-based, Clone20 osteoblasts, firefly luciferase, cherry-picked (AID 624132); assay type: functional;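 further: firefly luciferase luminescence from reporter carrying the Shn3 3'UTR in osteoblasts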
[4] = HepG2 cell cytotoxicity, dose response, cytotoxicity control for Shn3 inhibitor project, CellTiter-Glo, cherry-picked (AID 624134); assay type: functional, cell-based
[5] = cytotoxicity in HEK-293T cells, dose response, cytotoxicity control for BCR NF-kB inhibitor project, luminescence, B-cell screen hits (AID 489021); assay type: functional, cell-based;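 further: HEK-293T cells carrying an NF-kB luciferase reporter; cells exposed to compound for about 14 hours before viability readout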
INS1 = test: beta cell apoptosis inhibitors, cytokine rescue, dose response, luminescence, retest (AID 449756); assay type: functional, cell-based; conditions: Rattus norvegicus;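 further: cell death triggered by IL-1 beta plus TNF-alpha plus IFN-gamma mixture; protective hits raise ATP signal compared with cytokine alone wells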
[6] = control 3'UTR Renilla luciferase suppression, dose response, counter-screen for Shn3 inhibitor project, cell-based, Clone20-Shn3RL, cherry-picked (AID 624133); assay type: functional
[7] = molecular target: Peroxisome proliferator-activated receptor gamma/Nuclear receptor coactivator 1 (Homo sapiens, UniProt P37231); test: (§1) TR-FRET dose response biochemical High Throughput Screening assay for agonists of the steroid receptor coactivator 1 (SRC-1) recruitment by the peroxisome proliferator-activated receptor gamma (PPAR gamma): non-selective agonists. [Related pubchem assays (depositor defined):AID1300, AID1808, AID504735, AID631]; assay type: protein assay
Chain of Peroxisome proliferator-activated receptor gamma/Nuclear receptor coactivator 1 (P37231 whole entry): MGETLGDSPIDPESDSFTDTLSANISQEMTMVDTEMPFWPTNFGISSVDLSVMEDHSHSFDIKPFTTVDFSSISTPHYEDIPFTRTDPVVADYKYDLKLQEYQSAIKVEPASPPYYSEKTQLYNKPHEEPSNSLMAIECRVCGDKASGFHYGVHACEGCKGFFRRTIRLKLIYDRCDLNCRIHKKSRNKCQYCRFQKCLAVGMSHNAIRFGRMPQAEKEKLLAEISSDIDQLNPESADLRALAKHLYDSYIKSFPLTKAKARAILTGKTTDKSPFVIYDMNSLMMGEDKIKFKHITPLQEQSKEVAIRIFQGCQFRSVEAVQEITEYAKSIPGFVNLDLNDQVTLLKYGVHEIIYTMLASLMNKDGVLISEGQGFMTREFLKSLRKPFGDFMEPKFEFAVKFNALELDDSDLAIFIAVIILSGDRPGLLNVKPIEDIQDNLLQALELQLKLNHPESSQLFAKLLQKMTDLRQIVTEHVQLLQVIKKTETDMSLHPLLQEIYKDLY
Chain of Peroxisome proliferator-activated receptor gamma/Nuclear receptor coactivator 1 (Q15788 whole entry, further chain): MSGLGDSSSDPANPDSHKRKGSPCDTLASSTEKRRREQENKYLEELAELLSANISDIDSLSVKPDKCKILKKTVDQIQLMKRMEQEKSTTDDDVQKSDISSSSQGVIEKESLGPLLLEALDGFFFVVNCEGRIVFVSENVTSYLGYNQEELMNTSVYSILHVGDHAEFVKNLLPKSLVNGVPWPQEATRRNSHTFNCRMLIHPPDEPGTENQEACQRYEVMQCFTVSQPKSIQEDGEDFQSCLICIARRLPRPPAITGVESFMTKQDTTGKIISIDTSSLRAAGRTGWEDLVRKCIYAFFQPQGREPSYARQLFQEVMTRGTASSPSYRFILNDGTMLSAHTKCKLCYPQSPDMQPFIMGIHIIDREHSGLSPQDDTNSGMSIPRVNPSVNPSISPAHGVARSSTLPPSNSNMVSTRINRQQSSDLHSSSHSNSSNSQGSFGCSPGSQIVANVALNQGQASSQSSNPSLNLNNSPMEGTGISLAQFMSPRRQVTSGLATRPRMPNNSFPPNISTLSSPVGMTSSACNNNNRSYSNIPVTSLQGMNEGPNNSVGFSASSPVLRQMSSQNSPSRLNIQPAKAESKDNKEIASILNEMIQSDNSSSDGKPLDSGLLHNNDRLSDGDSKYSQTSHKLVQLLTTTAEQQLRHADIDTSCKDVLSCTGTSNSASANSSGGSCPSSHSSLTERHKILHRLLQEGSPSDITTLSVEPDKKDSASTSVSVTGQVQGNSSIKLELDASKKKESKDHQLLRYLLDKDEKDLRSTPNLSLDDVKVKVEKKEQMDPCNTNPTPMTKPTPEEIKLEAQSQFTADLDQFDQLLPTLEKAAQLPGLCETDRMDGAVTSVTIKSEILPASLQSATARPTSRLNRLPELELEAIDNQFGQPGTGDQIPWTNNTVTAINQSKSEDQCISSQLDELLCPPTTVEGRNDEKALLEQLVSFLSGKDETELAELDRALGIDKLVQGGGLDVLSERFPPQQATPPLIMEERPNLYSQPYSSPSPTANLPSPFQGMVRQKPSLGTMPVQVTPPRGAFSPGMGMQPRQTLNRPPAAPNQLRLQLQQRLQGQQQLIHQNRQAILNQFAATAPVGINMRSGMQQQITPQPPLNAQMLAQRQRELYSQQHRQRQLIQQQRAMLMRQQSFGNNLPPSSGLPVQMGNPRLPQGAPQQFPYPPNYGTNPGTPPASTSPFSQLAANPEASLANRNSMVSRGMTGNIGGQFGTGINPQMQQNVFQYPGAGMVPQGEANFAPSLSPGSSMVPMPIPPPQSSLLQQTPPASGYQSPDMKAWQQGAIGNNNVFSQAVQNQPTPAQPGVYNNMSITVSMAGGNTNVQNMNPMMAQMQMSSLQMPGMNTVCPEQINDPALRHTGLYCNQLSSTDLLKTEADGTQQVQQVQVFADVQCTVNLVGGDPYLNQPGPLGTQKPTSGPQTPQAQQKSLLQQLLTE

[8] = molecular target: Peroxisome proliferator-activated receptor gamma/Nuclear receptor coactivator 3 (Homo sapiens, UniProt P37231); test: as §1, with “3 (SRC-3)” for “1 (SRC-1)”, “assays: 1301 (Confirmation screen.), 1048 (Primary screen.)]” for “assays (depositor defined):AID1300, AID1808, AID504735, AID631]”; assay type: functional
[9] = molecular target: Peroxisome proliferator-activated receptor gamma/Nuclear receptor coactivator 2 (Homo sapiens, UniProt P37231); test: TR-FRET dose response biochemical High Throughput Screening assay for agonists of the steroid receptor coactivator 2 (SRC-2) recruitment by the peroxisome proliferator-activated receptor gamma (PPAR gamma): non-selective agonists. [Related pubchem assays: 1297, 1032 ]; assay type: functional
[10] = molecular target: T2, Oxysterols receptor LXR-beta (Homo sapiens, UniProt P55055); assay type: functional, cell-based;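 further: agonist activity at LXR measured by a cell-based luminescence readout across a dose range, run as a counterscreen for daf-12 agonists; HEK293 cells with Gal4-LXR fusion and GAL4-driven luciferase reporter; potency for activation of Gal4-LXR reporter so compounds are agonists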
T2 sequence (P55055 whole entry): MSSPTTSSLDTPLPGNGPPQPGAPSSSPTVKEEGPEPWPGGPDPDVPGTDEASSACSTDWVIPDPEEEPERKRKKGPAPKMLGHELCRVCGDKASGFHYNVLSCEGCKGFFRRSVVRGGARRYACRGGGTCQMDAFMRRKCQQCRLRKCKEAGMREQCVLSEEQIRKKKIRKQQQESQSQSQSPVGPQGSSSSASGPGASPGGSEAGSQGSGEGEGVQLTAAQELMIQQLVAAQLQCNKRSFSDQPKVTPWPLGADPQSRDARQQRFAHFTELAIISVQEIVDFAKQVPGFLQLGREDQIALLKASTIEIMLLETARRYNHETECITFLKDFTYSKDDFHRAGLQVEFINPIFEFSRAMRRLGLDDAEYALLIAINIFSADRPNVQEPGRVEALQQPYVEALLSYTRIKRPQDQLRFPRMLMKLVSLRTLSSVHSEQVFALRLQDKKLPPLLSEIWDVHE

Fatty acid synthase [11] = molecular target: T3, Fatty acid synthase (Homo sapiens, UniProt P49327); test: FAS thioesterase domain inhibitors, dose response, biochemical, endpoint fluorescence intensity, uHTS hits (AID 624327); assay type: functional;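 further: fluorescence from hydrolysis of an O-methyl fluorescein acyl ester substrate by the enzyme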
T3 sequence (P49327 whole entry, the tested form may be a part): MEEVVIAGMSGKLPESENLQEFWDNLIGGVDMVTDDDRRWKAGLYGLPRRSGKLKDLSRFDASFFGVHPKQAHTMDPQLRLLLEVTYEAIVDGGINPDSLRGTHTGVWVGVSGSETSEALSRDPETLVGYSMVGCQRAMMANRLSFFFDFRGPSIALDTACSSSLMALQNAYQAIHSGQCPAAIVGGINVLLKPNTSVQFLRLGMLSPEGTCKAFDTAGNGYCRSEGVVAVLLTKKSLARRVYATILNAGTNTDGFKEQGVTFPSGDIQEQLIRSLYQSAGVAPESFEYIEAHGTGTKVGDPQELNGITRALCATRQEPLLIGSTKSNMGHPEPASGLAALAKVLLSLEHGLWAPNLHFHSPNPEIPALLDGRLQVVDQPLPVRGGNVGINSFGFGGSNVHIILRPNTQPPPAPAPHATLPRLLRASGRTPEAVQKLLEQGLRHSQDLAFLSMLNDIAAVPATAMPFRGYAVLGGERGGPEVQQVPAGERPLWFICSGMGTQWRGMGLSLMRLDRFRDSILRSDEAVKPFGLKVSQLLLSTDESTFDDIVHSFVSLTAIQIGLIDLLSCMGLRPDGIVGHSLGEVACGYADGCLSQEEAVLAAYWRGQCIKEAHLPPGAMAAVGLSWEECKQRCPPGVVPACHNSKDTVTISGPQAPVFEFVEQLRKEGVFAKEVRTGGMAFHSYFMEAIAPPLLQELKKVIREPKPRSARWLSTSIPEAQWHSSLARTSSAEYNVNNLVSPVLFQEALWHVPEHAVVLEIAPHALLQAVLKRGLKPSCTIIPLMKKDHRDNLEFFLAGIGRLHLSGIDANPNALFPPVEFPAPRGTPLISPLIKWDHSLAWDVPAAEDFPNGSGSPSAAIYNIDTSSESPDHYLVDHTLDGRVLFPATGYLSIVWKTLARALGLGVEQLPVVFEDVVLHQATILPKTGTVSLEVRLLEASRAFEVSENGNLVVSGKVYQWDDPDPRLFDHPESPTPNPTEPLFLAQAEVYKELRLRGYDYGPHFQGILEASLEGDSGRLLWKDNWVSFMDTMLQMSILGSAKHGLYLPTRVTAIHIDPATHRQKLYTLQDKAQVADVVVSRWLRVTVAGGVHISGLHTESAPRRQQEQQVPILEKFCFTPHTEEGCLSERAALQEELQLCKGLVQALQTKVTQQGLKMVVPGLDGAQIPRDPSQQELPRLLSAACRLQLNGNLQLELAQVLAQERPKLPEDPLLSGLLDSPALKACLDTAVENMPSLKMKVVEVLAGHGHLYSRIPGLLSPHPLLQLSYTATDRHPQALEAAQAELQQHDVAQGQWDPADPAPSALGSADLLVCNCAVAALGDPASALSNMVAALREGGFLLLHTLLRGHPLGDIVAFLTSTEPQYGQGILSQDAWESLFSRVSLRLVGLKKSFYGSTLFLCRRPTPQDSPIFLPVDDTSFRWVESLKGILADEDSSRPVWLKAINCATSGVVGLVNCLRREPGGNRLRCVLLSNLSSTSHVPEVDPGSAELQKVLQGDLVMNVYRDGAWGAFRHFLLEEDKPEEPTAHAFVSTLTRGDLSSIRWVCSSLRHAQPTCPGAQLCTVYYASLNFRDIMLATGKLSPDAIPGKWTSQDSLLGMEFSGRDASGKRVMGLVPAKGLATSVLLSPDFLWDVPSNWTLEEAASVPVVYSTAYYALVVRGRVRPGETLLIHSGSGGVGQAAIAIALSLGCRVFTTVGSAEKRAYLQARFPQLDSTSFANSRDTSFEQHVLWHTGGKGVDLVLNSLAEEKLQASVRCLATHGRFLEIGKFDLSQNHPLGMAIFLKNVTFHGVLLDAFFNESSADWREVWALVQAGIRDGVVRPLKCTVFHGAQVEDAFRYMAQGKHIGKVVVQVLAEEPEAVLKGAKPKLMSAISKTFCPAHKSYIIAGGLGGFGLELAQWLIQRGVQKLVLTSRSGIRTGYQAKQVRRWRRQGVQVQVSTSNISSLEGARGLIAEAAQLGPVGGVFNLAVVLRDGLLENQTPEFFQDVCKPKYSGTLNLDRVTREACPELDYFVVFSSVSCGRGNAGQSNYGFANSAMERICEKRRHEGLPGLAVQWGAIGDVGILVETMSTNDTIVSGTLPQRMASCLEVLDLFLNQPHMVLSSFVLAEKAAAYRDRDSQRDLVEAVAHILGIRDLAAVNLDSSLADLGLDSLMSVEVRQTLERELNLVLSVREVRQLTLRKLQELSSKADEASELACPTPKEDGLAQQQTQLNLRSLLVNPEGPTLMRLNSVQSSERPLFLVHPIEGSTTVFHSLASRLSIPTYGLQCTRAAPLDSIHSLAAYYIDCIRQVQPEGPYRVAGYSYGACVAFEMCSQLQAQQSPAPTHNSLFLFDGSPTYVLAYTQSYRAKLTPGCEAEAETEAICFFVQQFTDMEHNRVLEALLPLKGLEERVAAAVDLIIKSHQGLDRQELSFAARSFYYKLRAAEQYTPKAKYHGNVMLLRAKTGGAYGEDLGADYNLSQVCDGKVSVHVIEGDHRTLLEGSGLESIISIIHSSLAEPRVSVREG

Fatty acid synthase [12] = molecular target: T3, Fatty acid synthase; test: FAS thioesterase domain inhibitors, dose response, biochemical, kinetic fluorescence intensity (AID 624326); assay type: functional;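 further: rate of fluorescence rise from hydrolysis of a fluorogenic O-methyl fluorescein ester substrate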
[13] = molecular target: T4, Endoribonuclease toxin MazF (Escherichia coli K-12, UniProt P0AE70); test: MazF toxin RNase activators, dose response, biochemical, fluorescence, single-stranded RNA substrate, uHTS hits (AID 588481); assay type: functional
T4 sequence (P0AE70 whole entry): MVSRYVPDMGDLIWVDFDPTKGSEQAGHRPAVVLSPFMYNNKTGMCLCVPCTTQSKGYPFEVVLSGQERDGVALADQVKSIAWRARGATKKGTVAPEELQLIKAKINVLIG

[14] = molecular target: T4, Endoribonuclease toxin MazF; test: fluorescent RNA oligo signal without MazF, dose response, counter-screen for MazEF activator project, biochemical, fluorescence, single-stranded RNase substrate (AID 588502); assay type: functional
fMet-Leu-Phe receptor = molecular target: T5, fMet-Leu-Phe receptor (Homo sapiens, UniProt P21462); test: FPR ligands, dose response (AID 519); assay type: functional
T5 sequence (P21462 whole entry): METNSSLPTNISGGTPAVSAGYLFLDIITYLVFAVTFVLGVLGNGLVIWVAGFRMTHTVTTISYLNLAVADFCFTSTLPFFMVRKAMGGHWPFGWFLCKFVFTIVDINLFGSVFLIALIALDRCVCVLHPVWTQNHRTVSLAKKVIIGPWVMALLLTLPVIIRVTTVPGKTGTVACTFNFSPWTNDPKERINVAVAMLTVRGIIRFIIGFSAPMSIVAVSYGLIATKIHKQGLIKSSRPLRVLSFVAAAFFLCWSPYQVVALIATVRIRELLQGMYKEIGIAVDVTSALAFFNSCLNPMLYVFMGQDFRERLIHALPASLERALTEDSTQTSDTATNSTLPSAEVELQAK

H9c2 = test: cells; assay type: functional, cell-based; conditions: Rattus norvegicus, H9c2, Myocardium;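 further: confirmatory concentration-response retest of ultra-high-throughput screening hits for modulation of myocardial damage; cell death induced by hydrogen peroxide oxidative stress; compound pretreatment for 60 min then peroxide exposure for 2 h; potency is for protecting the cells against peroxide damage rather than for killing them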
[15] = THP-1 cell cytotoxicity, dose response, cytotoxicity control for non-replicating M. tuberculosis project (AID 489025); assay type: functional

COc1cc(CN(C(=O)c2ccco2)c2ccc(C)cc2)ccc1O
IC50 (Protein Tat): 9.05 µM (inconclusive) | CC50 [1]: > 40 µM (active) | IC50 [2]: > 64 µM (inactive)

O=C(Nc1cccc(S(=O)(=O)Nc2ccc(Cl)cc2)c1)c1ccc(Cl)nc1
AC50 [3]: 0.606 µM (active) | AC50 [4]: 2.63 µM (active) | IC50 [5]: 49.5 µM (inactive) | AC50 (INS1): 3.31 µM (active) | AC50 [6]: 11.7 µM (active)

O=C(NN1C(=O)/C(=C/c2nc3ccccc3[nH]2)SC1=S)c1ccccc1Cl
EC50 [7]: 25.8 µM (inactive) | EC50 [8]: > 79.4 µM (not active) | EC50 [9]: 44.5 µM (not active)

CC(C)CC(=O)NC(=S)Nc1cccc2nsnc12
EC50 [7]: 1.81 µM (active) | EC50 [8]: 7.93 µM (active) | EC50 [9]: 2.92 µM (active)

Cc1ccc(C(=N)NOC(=O)c2ccco2)cc1
EC50 [10]: > 67.5 µM (inactive)

Cc1nc2ccc([N+](=O)[O-])cc2c(=O)n1Cc1ccc([N+](=O)[O-])cc1
IC50 (Fatty acid synthase [11]): 9.22 µM (active) | IC50 (Fatty acid synthase [12]): 8.3 µM (active)

Cc1c(CCC(=O)O)c(=O)oc2cc3oc4c(c3cc12)CCCC4
IC50 [5]: > 80 µM (inactive)

Cc1ccc(S(=O)(=O)N[N-][C+]2CCC(C(C)(C)C)CC2)cc1[N+](=O)[O-]
IC50 (Fatty acid synthase [11]): 53 µM (inactive) | IC50 (Fatty acid synthase [12]): 80 µM (inactive)

COC(=O)c1sc2nc(SCc3cccc(F)c3)n(N)c(=O)c2c1C
EC50 [13]: > 99 µM (inactive) | EC50 [14]: > 99 µM (inactive)

CC1=C(C(=O)OC(C)C)[C@]2(C(=O)N(CC(N)=O)c3ccccc32)C(C#N)=C(N)O1
Ki (fMet-Leu-Phe receptor): > 66.7 µM (inactive)

CCOC(=O)c1cc(NC(=O)C2C3CCC(O3)C2C(=O)O)cc(C(=O)OCC)c1 (stereo not drawn)
Ki (fMet-Leu-Phe receptor): > 66.7 µM (inactive)

Nc1nc(-c2c[nH]c3ccccc23)cs1
EC50 [7]: > 26.5 µM (inactive) | IC50 (H9c2): > 79 µM (inactive) | EC50 [8]: > 79.4 µM (not active) | EC50 [9]: 24.2 µM (not active)

CC(C)(C)NCc1cc(Br)ccc1OCc1cccs1
CC50 [15]: > 40 µM (active)

COc1ccc(-c2cc(C(F)(F)F)nc(N3CCN(Cc4ccccc4)CC3)n2)cc1OC
Ki (fMet-Leu-Phe receptor): > 66.7 µM (inactive)

CC(C)Sc1ncnc2c1oc1ccccc12
EC50 [7]: 39.2 µM (inactive) | EC50 [8]: > 79.4 µM (not active) | EC50 [9]: 26.2 µM (not active)
